From patent US6703237B2, “Methods and formulations for mediating adeno-associated virus (AAV) attachment and infection and methods for purifying AAV” (priority 1998, dated 2004)

Tests used:
rAAV-LacZ [1] = settings: 20 mM EDTA; HeLa cells; MOI 2
Experimental: (§1) HeLa cells were infected with recombinant virus (rAd-LacZ [FIG. 11A], rAAV-LacZ [FIG. 11B]) at an MOI of 2 either in the presence or absence of divalent cation chelator EDTA (20 mM) as described in methods. 24 h post Ad infection, and 36 h post AAV infection, cells were fixed and stained for β-galactosidase activity (upper panel). Transduction has been quantitated in the lower panel as the percentage of HeLa cells transduced in the presence or absence of EDTA.
(§2) All infectivity and binding assays were done in suspension in a buffer determined to result in maximum cell viability, HEPES-buffered saline (HBS) containing 1% BSA (HBSB) (Sambrook et al., (1989) Molecular Cloning, A Laboratory Manual, (N. Ford et al., eds.), Cold Spring Harbor Laboratory Press, New York). Adherent cells were first detached with 10 mM EDTA followed by two washes in phosphate buffered saline (PBS) containing […] CaCl2 and 0.5 mM MgCl2 and one wash in HBS. To assess the effect of EDTA on AAV transduction, HeLa cells were incubated with recombinant virus at an MOI of 2 in HBS±20 mM EDTA for 1 hour at 4° C. After washing in HBS±EDTA to remove unbound virus, cells were resuspended in HBS±5 mM EDTA and placed at 37° C. for 30 minutes.

rAd-LacZ [2] = settings: 20 mM EDTA; HeLa cells; MOI 2
Experimental: as §1, §2

rAd-LacZ [3] = settings: Svensson and Persson 1984; cited from earlier work
rAAV-LacZ [4] = test: Inhibition of rAAV-LacZ transduction of HeLa cells by soluble GAGs; assay type: cell-based, AAV-2; settings: HeLa cells preincubated with heparin up to 20 μg/ml, washed before infection
Experimental: FIGS. 1A and 1B illustrate the inhibition of AAV infection by various glycosaminoglycans. In the data shown in FIG. 1A, rAAV was incubated with the indicated concentrations of heparin (solid squares), chondroitin sulfate B (dermatan sulfate) (open circles), chondroitin sulfate A (open diamonds) or chondroitin sulfate C (open triangles) for 1 hour at 37° C. prior to a 1-hour adsorption period of the virus/GAG mixture to HeLa cells for infection. β-galactosidase activity was assayed 44 hours post-infection using a Galacto-Light Plus kit (Tropix Inc.), and measured in a luminometer. Each point denotes the average % decrease in Relative Light Units (RLU) per ug of protein relative to the maximum RLU/μg protein obtained in experiments without GAG. In the data shown in FIG. 1B, HeLa cells were preincubated with increasing concentrations of heparin at 37° C. for 1 hour. After thorough washing, cells were infected with rAAV as described above. Data points represent the average % maximum RLU/ug protein obtained without heparin preincubation.
rAAV-LacZ at an MOI of 2 was incubated in DMEM-H media in the presence or absence of indicated soluble GAGs at 1.0, 5.0, 10, 20, 30 μg/ml for 1 h at 37° C. For infection, rAAV-LacZ or the virus/GAG mixture was incubated with 2×10^5 HeLa cells for 1 h at 37° C. in a 5% CO2 chamber. […]

3H-wt AAV-2 = test: Inhibition of 3H-wt AAV-2 binding to HeLa cells by soluble GAGs; settings: 5 μg/ml, 90 min at 4° C.
Experimental: FIG. 2 illustrates that soluble heparin inhibits binding of AAV to the cell surface. After pre-incubation of 3H-wt AAV-2 with increasing concentrations of the indicated GAGs or the GAG analogue dextran sulfate, labeled virus was adsorbed to HeLa cells for 90 minutes at 4° C. Unbound virus was removed by three washes with ice cold binding buffer and radioactivity was quantitated as described in methods. Data is represented as the average % inhibition relative to the CPM bound in the absence of soluble GAG.
For direct binding assays, ^3H-labeled wtAAV-2 was incubated with cells either attached to plates or in suspension, as indicated, at a ratio of 4×10^11 particles/3×10^5 cells for 90 minutes at 4° C. in HBSB. Cells were then washed 3 times in ice cold HBSB to remove unbound virus, and were solubilized in 0.3 N NaOH. After neutralization with glacial acetic acid, cell-associated radioactivity was quantitated in a scintillation counter. For inhibition studies, and after enzymatic treatments, ^3H-AAV was bound to adherent HeLa cells. Binding to wild type CHO and CHO cell mutants was done with suspended cells. […] Non-specific binding was determined in the presence of 100-fold excess unlabeled wt AAV (previously dialyzed in HBS, 10% glycerol). Binding of Cy3-labeled virus was done on wild type CHO and pgsA-745 cells grown on coverslips. After fixation in 4% paraformaldehyde for 20 minutes at room temperature, cells were mounted on slides and bound Cy3 labeled virus was detected by confocal microscopy. […]
To further examine the observed specificity and to determine whether GAGs were inhibiting binding of the AAV virions to the cell surface, ^3H-wt AAV was incubated with GAGs (heparin, dermatan sulfate, chondroitin sulfate A, chondroitin sulfate C, dextran sulfate) at various concentrations. After incubation with cells, the mixture was washed and cells were solubilized to quantify bound virus. […]

rAAV-LacZ [5] = test: rAAV-lacZ transduction of HeLa cells with low concentrations of heparin; assay type: cell-based, AAV-2; settings: heparin 0.001 and 0.004 μg/mL, 48 h after infection
Experimental: HeLa cells were infected with rAAV-lacZ virus in the presence or absence of heparin, at the indicated concentrations, for one hour at 37° C. […] Results are reported as the mean and standard deviation of one experiment performed in triplicate.
HeLa cells were infected with rAAV-lacZ virus in the presence or absence of heparin, at concentrations of 0 μg/mL, 0.001 μg/mL, and 0.004 μg/mL, for one hour at 37° C. […] The results of this experiment are shown in FIG. 6 as the mean and standard deviation of one experiment performed in triplicate.

Molecule | inhibition of AAV infection (rAAV-LacZ [1]) | inhibition of recombinant Ad-LacZ transduction (rAd-LacZ [2]) [%] | inhibition of Ad infection, previous published results (rAd-LacZ [3]) | inhibition of rAAV transduction after preincubation of cells (rAAV-LacZ [4]) | inhibition of AAV binding (3H-wt AAV-2) [%] | effect on rAAV transduction (β-galactosidase, RLU/μg protein) (rAAV-LacZ [5])
O=C(O)CN(CCN(CC(=O)O)CC(=O)O)CC(=O)O [EDTA, ethylenediaminetetraacetate] | greater than 90% | 40 | 20-50% | – | – | –
heparin | – | – | – | less than 20% | 90 | enhance rAAV transduction
